34 molecules from patent US20240368181A1, “QUINOXALINE DERIVATIVES AND USES THEREOF” (Black Diamond Therapeutics, Inc., priority 2021, published 2024) can be followed below.

Structures are written as SMILES.

Type in all cases: cell-based
The subject of experiment [1] is UM-UC-14 (FGFR3-S249C) cells. Nature of the experiment: cell proliferation assay (CellTiterGlo), UM-UC-14 cells. The note with it: UMUC14, 72 h. From the text:
(§1) In some embodiments, the biological assay assess the ability of the compounds to inhibit cell proliferation.
(§2) In some embodiments, cells (e.g., SNU-16 (FGFR2-amplification) cells) may be suspended and dispensed in plates. In some embodiments, cells (e.g., UM-UC-14 (FGFR3-S249C) cells) may be suspended and dispensed in plates. In some embodiments, cells (e.g., DMS-114 (FGFR1 overexpression) cells) may by suspended and dispensed in plates. In some embodiments, cells (e.g., RT-112 (FGFR3-Tacc3 fusion) cells) may be suspended and dispensed in plates. In some embodiments, to determine the effect of the compounds of the present disclosure on cell proliferation, cells (e.g., SNU-16, UM-UC-14, DMS-114 and […] cells) may be incubated in the presence of vehicle control (e.g., DMSO) or a compound of the present disclosure at varying concentrations and the inhibition of cell growth may be determined by luminescent quantification (e.g., of intracellular ATP content using CellTiterGlo), according to the manufacturers protocol. In some embodiments, to determine the IC50 values, the vehicle-treated cells were normalized as viable cells and the growth was analyzed using a software (e.g., the CDD Vault software (Collaborative Drug Discovery, Burlingame, CA)).
In general terms: ATP-based viability assays read luminescence as a measure of living cells.

Experiment [2] has as its system DMS-114 (FGFR1 overexpression) cells. As to the kind of experiment: cell proliferation assay (CellTiterGlo), DMS-114 cells. The note with it: Homo sapiens, DMS-114, 72 h.
Description: as §1, §2

Experiment [3] has as its system RT-112 (FGFR3-Tacc3 fusion) cells. Nature of the experiment: cell proliferation assay (CellTiterGlo), RT-112 cells. The settings on record: Homo sapiens, RT-112, RT112 cells, 72 hours.
Description: as §1, §2

What is called IC50 is the concentration at which inhibition is half-maximal. Read a low IC50 as higher potency. With `Cc1nc2ccc(Oc3ccc4ncc(-c5cnn(C6CC7(CC(O)C7)C6)c5)nc4c3Cl)cc2[nH]1` (centres unmarked) [Compound 161], the IC50 in experiment [1] was 20 to 100 nM; in experiment [2] it was ≥ 400 nM.

For the molecule `Cc1nc2ccc(Oc3ccc4ncc(-c5cnn(CC6CC(F)(F)C6)c5)nc4c3N)cc2[nH]1` [Compound 159], the concentration for half-maximal inhibition (IC50) in experiment [1] and in experiment [2] was ≥ 400 nM each time.

With `Cc1nc2ccc(Oc3ccc4ncc(-c5cnn(C6(C)CCC(F)(F)CC6)c5)nc4c3Cl)cc2[nH]1` [Compound 171], the IC50 in experiment [1] is 100 to 400 nM; in experiment [2] it was ≥ 400 nM.

Take `Cc1nc2ccc(Oc3ccc4ncc(-c5cnn(C(C)(C)C6CC(O)C6)c5)nc4c3Cl)cc2[nH]1` (centres unmarked) [Compound 160]: the IC50 lay within 20 to 100 nM in experiment [1] and 100 to 400 nM in experiment [2].

`Cc1nc2ccc(Oc3ccc4ncc(-c5cnn([C@H]6C[C@@](C)(O)C6)c5)nc4c3Cl)cc2[nH]1` [Compound 168]: the IC50 in experiment [1] was 20 to 100 nM; in experiment [2], ≥ 400 nM.

On to `Cc1nc2ccc(Oc3ccc4ncc(-c5cnn([C@H]6C[C@@H](O)C6)c5)nc4c3Cl)cc2[nH]1` [Compound 173], for which the IC50 was 20 to 100 nM in experiment [1] and 100 to 400 nM in experiment [2].

In the case of `Cc1nc2ccc(Oc3ccc4ncc(-c5cnn(C6CC(=O)C6)c5)nc4c3Cl)c(F)c2[nH]1` [Compound 156], the figures for the IC50 in experiment [1] and in experiment [2] were < 20 nM and 20 to 100 nM, respectively.

On to `Cc1nc2ccc(Oc3ccc4ncc(-c5cnn([C@H]6C[C@H](O)C6)c5)nc4c3Cl)cc2[nH]1` [Compound 172], for which the IC50 is 100 to 400 nM in experiment [1] and ≥ 400 nM in experiment [2].

On to `Cc1nc2ccc(Oc3ccc4ncc(-c5cnn(C6CC7(C6)CC(F)(F)C7)c5)nc4c3Cl)cc2[nH]1` [Compound 101], for which the IC50 in experiment [1] was 100 to 400 nM; in experiment [2] it was ≥ 400 nM; in experiment [3], 100 to 400 nM.

As for `Cc1nc2ccc(Oc3ccc4ncc(-c5cnn(CC6CC(F)(F)C6)c5)nc4c3C3CCOC3)c(F)c2[nH]1` (centres unmarked) [Compound 72], the IC50 in experiment [1] was 20 to 100 nM; in experiment [2] it was 20 to 100 nM; in experiment [3] it was < 20 nM.

As for `Cc1nc2ccc(Oc3ccc4ncc(-c5cnn(CC6(O)CC6)c5)nc4c3C3=CCCC3)cc2[nH]1` [Compound 164], the IC50 in experiment [1] and in experiment [2] was 20 to 100 nM each time.

Turning to `Cc1nc2ccc(Oc3ccc4ncc(-c5cnn(CC6CC(F)(F)C6)c5)nc4c3C3=CCOC3(C)C)cc2[nH]1` [Compound 71], the IC50 in experiment [1] was in the range of 20 to 100 nM; in experiment [2], 100 to 400 nM; in experiment [3] it was 100 to 400 nM.

`Cc1nc2ccc(Oc3ccc4ncc(-c5cnn(CC6(O)CC6)c5)nc4c3-n3ccnc3)c(F)c2[nH]1` [Compound 103]: the values for the IC50 in experiment [1], in experiment [2] and in experiment [3] were 100 to 400 nM, ≥ 400 nM and 100 to 400 nM, respectively.

On to `Cc1nc2ccc(Oc3ccc4ncc(-c5cnn(CC6(O)CC6)c5)nc4c3Cl)c(F)c2[nH]1` [Compound 162], for which the IC50 in experiment [1] and in experiment [2] was 20 to 100 nM in each case.

For the molecule `Cc1nc2cc(Oc3ccc4ncc(-c5cnn(CC6CC(F)(F)C6)c5)nc4c3C=O)ccc2[nH]1` [Compound 158], the IC50 in experiment [1] and in experiment [2] was ≥ 400 nM throughout.

For the molecule `Cc1nc2ccc(Oc3ccc4ncc(-c5cnn([C@@H](C)CO)c5)nc4c3Cl)cc2[nH]1` [Compound 125], the IC50 in experiment [1] is 20 to 100 nM; in experiment [2], ≥ 400 nM; in experiment [3], 20 to 100 nM.

Regarding `Cc1nc2ccc(Oc3ccc4ncc(-c5cnn(CC6(O)CC6)c5)nc4c3I)cc2[nH]1` [Compound 129], the IC50 in experiment [1] is 20 to 100 nM; in experiment [2], ≥ 400 nM; in experiment [3], 20 to 100 nM.

On to `Cc1nc2ccc(Oc3ccc4ncc(-c5cnn(C[C@H](C)O)c5)nc4c3Cl)c(F)c2[nH]1` [Compound 118], for which the IC50 was < 20 nM in experiment [1], 100 to 400 nM in experiment [2] and < 20 nM in experiment [3].

For `Cc1nc2ccc(Oc3ccc4ncc(-c5cnn(C6CCN(C)C7(CC7)C6)c5)nc4c3Cl)cc2[nH]1` (centres unmarked) [Compound 163], the results for the IC50 in experiment [1] and in experiment [2] were 20 to 100 nM and 100 to 400 nM, respectively.

Turning to `Cc1nc2ccc(Oc3ccc4ncc(-c5cnn(CC6CC(F)(F)C6)c5)nc4c3N3CCCC3=O)cc2[nH]1` [Compound 117], the IC50 in experiment [1], in experiment [2] and in experiment [3] was ≥ 400 nM in each case.

Regarding `Cc1nc2ccc(Oc3ccc4ncc(-c5cnn([C@@H](C)C6CCC(F)(F)CC6)c5)nc4c3Cl)cc2[nH]1` [Compound 104], the IC50 is 20 to 100 nM in experiment [1], ≥ 400 nM in experiment [2] and 20 to 100 nM in experiment [3].

Take `Cc1nc2ccc(Oc3ccc4ncc(-c5cnn([C@H](C)C6CCC(F)(F)CC6)c5)nc4c3Cl)cc2[nH]1` [Compound 105]: the figures for the IC50 in experiment [1], in experiment [2] and in experiment [3] were 20 to 100 nM, ≥ 400 nM and 20 to 100 nM, respectively.

In the case of `Cc1nc2ccc(Oc3ccc4ncc(-c5cnn(CC(=O)N6CCOCC6)c5)nc4c3Cl)c(F)c2[nH]1` [Compound 155], the IC50 was < 20 nM in experiment [1] and 20 to 100 nM in experiment [2].

With `Cc1nc2cc(Oc3ccc4ncc(-c5cnn(CC6CC(F)(F)C6)c5)nc4c3C(F)F)ccc2[nH]1` [Compound 157], the results for the IC50 in experiment [1] and in experiment [2] were 20 to 100 nM and 100 to 400 nM, respectively.

Consider `Cc1nc2ncc(Oc3ccc4ncc(-c5cnn(C6CCC(F)(F)CC6)c5)nc4c3Cl)cc2[nH]1` [Compound 169], for which the IC50 in experiment [1] and in experiment [2] was ≥ 400 nM each time.

For `Cc1nc2ccc(Oc3ccc4ncc(-c5cnn(C6(C)CC=C(F)CC6)c5)nc4c3Cl)cc2[nH]1` (centres unmarked) [Compound 170], the IC50 in experiment [1] was 100 to 400 nM; in experiment [2], ≥ 400 nM.

As to `CC(=O)N1CCN(C(=O)Cn2cc(-c3cnc4ccc(Oc5ccc6nc(C)[nH]c6c5)c(Cl)c4n3)cn2)CC1` [Compound 114], the half-maximal inhibitory concentration (IC50) in experiment [1] is ≥ 400 nM; in experiment [2], ≥ 400 nM; in experiment [3] it was 100 to 400 nM.

As for `Cc1nc2ccc(Oc3ccc4ncc(-c5cnn(CC6CC(F)(F)C6)c5)nc4c3NC(=O)CCCCl)cc2[nH]1` [Compound 120], the IC50 in experiment [1] is 100 to 400 nM; in experiment [2], ≥ 400 nM; in experiment [3], 100 to 400 nM.

Take `Cc1nc2ccc(Oc3ccc4ncc(-c5cnn(CC6(O)CC6)c5)nc4c3C3CCOC3)c(F)c2[nH]1` (centres unmarked) [Compound 70]: the 50% inhibitory concentration (IC50) in experiment [1], in experiment [2] and in experiment [3] was 20 to 100 nM throughout.

As for `Cc1nc2ccc(Oc3ccc4ncc(-c5cnn(C[C@H]6C[C@](C)(O)C6)c5)nc4c3Cl)c(F)c2[nH]1` [Compound 166], the IC50 in experiment [1] lay in the range of 20 to 100 nM; in experiment [2], 100 to 400 nM.

On to `COC1CCN(C(=O)Cn2cc(-c3cnc4ccc(Oc5ccc6nc(C)[nH]c6c5)c(Cl)c4n3)cn2)CC1` [Compound 113], for which the IC50 in experiment [1] was 20 to 100 nM; in experiment [2], ≥ 400 nM; in experiment [3], 20 to 100 nM.

Consider `Cc1nc2ccc(Oc3ccc4ncc(-c5cnn(CC6CCS(=O)(=O)CC6)c5)nc4c3S(C)(=O)=O)cc2[nH]1` [Compound 116], for which the IC50 in experiment [1] is 100 to 400 nM; in experiment [2] it was ≥ 400 nM; in experiment [3], ≥ 400 nM.

As to `Cc1nc2ccc(Oc3ccc4ncc(-c5cnn(C6CC7(CC(=O)C7)C6)c5)nc4c3Cl)cc2[nH]1` [Compound 165], the results for the IC50 in experiment [1] and in experiment [2] were 20 to 100 nM and ≥ 400 nM, respectively.

In the case of `Cc1nc2ccc(Oc3ccc4ncc(-c5cnn(C[C@H]6C[C@@](C)(O)C6)c5)nc4c3Cl)c(F)c2[nH]1` [Compound 167], the IC50 was < 20 nM in experiment [1] and 20 to 100 nM in experiment [2].
